Results on 14 molecules are retold here after patent US5206233A, “Substituted thiazepines as central nervous system agents” (Warner-Lambert Company, priority 1991, dated 1993).

For orientation: IC50 means the point on the concentration scale where inhibition reaches its midpoint. The term ED50 denotes the dose at which the effect has come halfway, by size or by number of responders. Low readings indicate an effect at a small dose, high ones a need for a large dose.

Molecules are shown by their SMILES. Counter-ions that a name gives are not always drawn.

Experiment [1] concerns the target sigma receptor. Nature of the experiment: 3-PPP binding (inhibition of (+)-[3H]-3-PPP, a sigma ligand, binding). The settings on record: inhibition of (+)-[3H]-3-PPP binding, method of Largent et al.
The test system of experiment [2] is guinea pig ileum. The experiment in a line: inhibition of contraction of electrically stimulated guinea pig ileum. The settings on record: Cavia porcellus, read-out: Inhibition of Contraction of Electrical Stimulation Guinea Pig Ileum IC50. As to the method:
(§1) The compounds of Formula I are valuable sigma ligands. […] Additionally, the compounds of Formula I were tested for their ability to inhibit locomotor activity in mice according to the assay described by McLean, J. R., et al, Pharmacology, Biochemistry and Behavior 8:97-99 (1978); for their ability to inhibit contractions of electrically stimulated guinea pig ileum according to the method of Campbell, B. G., et al, Journal of Neuroscience 9 3380-3384 (1989) and Bass, P., et al, Journal of Pharmacology and Experimental Therapeutics 186:183-198 (1973). These tests further support the antipsychotic activity of the compounds of Formula I. The above test methods are incorporated herein by reference. The data in the table show the activity of representative compounds of Formula I.

Experiment [3] relates to locomotor activity in mice. The experiment in a line: inhibition of locomotor activity in mice. The settings on record: Mus musculus, IP. In kind it is in vivo. As to the method: as §1
The subject of experiment [4] is sigma receptor. The settings on record: known antipsychotic agents; literature; cited from earlier work.

Turning to `COc1ccc(C2CCN(C)CCS2)cc1` (stereo not drawn) [Example 2, Hexahydro-7-(4-methoxyphenyl)-4-methyl-1,4-thiazepine, hydrochloride], the concentration for half-maximal inhibition (IC50) in experiment [1] amounted to 16.5 nM.
In experiment [1], `CCN1CCSC(c2ccc(OC)cc2)CC1` (stereo not drawn) [Example 3, Hexahydro-7-(4-methoxyphenyl)-4-ethyl-1,4-thiazepine] registered an IC50 of 6.22 nM.
The same measure, in the same setting: under `COc1ccc(C2CCN(C(C)C)CCS2)cc1` (stereo not drawn) [Example 4, Hexahydro-7-(4-methoxyphenyl)-4-isopropyl-1,4-thiazepine, hydrochloride] stands 1.62 nM.
Still for that read-out and setting: under `CN1CCSC(c2ccc(Cl)cc2)CC1` (stereo not drawn) [Example 6, Hexahydro-7-(4-chlorophenyl)-4-methyl-1,4-thiazepine, hydrochloride] stands 121 nM; under `CCCN1CCSC(c2ccc(Cl)cc2)CC1` (stereo not drawn) [Example 10, Hexahydro-7-(4-chlorophenyl)-4-propyl-1,4-thiazepine], 21.3 nM.
`COc1ccc(C2CCN(CCCCc3ccncc3)CCS2)cc1` (stereo not drawn) [Example 12, Hexahydro-7-(4-methoxyphenyl)-4-[4-(4-pyridinyl)butyl]-1,4-thiazepine]: the IC50 in experiment [2] is 7300 nM; in experiment [1], 1.32 nM. Also, in experiment [3], the ED50 was determined as 13.9 mg/kg.
As for `COc1ccc(C2CCN(CCCC(=O)c3cccnc3)CCS2)cc1` (stereo not drawn) [Example 13, 1-(3-Pyridinyl)-7-(4-methoxyphenyl)-4-(tetrahydro-1,4-thiazepin-4(2H)-yl)-1-butanone, dihydrochloride], the IC50 in experiment [1] was 9.2 nM.
Take `Cl.c1ccc(C2CCN(CCCCc3ccncc3)CCS2)cc1` (stereo not drawn) [Example 14, Hexahydro-7-(phenyl)-4-[4-(4-pyridinyl)butyl]-1,4-thiazepine, hydrochloride]: the figures for the IC50 in experiment [2] and in experiment [1] were 13100 nM and 6.39 nM, respectively. For the same molecule, it took a dose of 13.1 mg/kg to reach the 50% effect level in experiment [3] (ED50).
For `c1ccc(C2CCN(CCCCc3cccnc3)CCS2)cc1` (stereo not drawn) [Example 15, Hexahydro-7-(phenyl)-4-[4-(3-pyridinyl)butyl]-1,4-thiazepine], in that order: 4000 nM, 2.5 nM and 17.9 mg/kg.
In the case of `Clc1ccc(C2CCN(CCCCc3ccncc3)CCS2)cc1` (stereo not drawn) [Example 16, Hexahydro-7-(4-chlorophenyl)-4-[4-(4-pyridinyl)butyl]-1,4-thiazepine], the IC50 in experiment [1] is 2.62 nM. In addition, the 50% effect level in experiment [3] (ED50) was put at a dose of 19 mg/kg.
For the molecule `O=C(CCCN1CCC(O)(c2ccc(Cl)cc2)CC1)c1ccc(F)cc1` [haloperidol], in experiment [4], the “interaction with the sigma receptor (in words)” value (“interaction” below) is “interact with the sigma receptor”.
Turning to `CCN1CCC[C@H]1CNC(=O)c1c(OC)ccc(Br)c1OC` [remoxapride], the “interaction” value in experiment [4] is “interact with the sigma receptor”.
Consider `C[C@@H]1CN(CCCn2c3ccccc3c3ccccc32)C[C@H](C)N1` [rimcazole], for which, in experiment [4], the “interaction” value is “interact with the sigma receptor”.
Turning to `O=C1CC2(CCCC2)CC(=O)N1CCCCN1CCN(c2nsc3ccccc23)CC1` [tiospirone], the “interaction” value in experiment [4] is “interact with the sigma receptor”.
